This note sets out measurements from PubChem BioAssay AID179 (DTP/NCI, 2004).

The subject of the test is CEM cells HIV-1 protection, formazan growth assay. The experiment in a line: NCI AIDS Antiviral Assay. Particulars: for IC50: measured here: growth of uninfected CEM cells. An outline of the steps: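 Five concentrations of each compound were applied to infected and uninfected human CEM cells. Protection from HIV-1 was judged from growth measured with a soluble formazan assay.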

“And” between values parts separate entries of the source, which are not always exact repeats. Equal values may be shown once. The source made the active and inactive calls.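 Rule for the calls: active = compounds giving half or more protection of infected cells from virus-caused growth loss, again on retest; inactive = the rest.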 Where a SMILES comes first, the peptide text is derived from it. Where only a bound is given, the exact number is not on record here.

Take `Cn1c(=O)[nH]c2nncnc2c1=O`: the EC50 is over 200 µM and the IC50 is 31.6 µM.
For `Cc1c(Cc2ccccc2)n(C(C)OCCN(OC(=O)Oc2ccccc2)C(=O)Oc2ccccc2)c(=O)[nH]c1=O` (stereo unspecified), the EC50 is over 200 µM and the IC50 was found to be 53.7 µM.
In the same order, the values of `COc1ccc(C2(CC(C)O)SCCCS2)cc1` (stereo unspecified) are over 200 µM and 115 µM.
For `Cc1cn(C2OCC(CO)C2F)c(=O)[nH]c1=O` (stereo unspecified) the same measures were over 200 µM and over 200 µM.
Regarding `Cc1cccc(N2C(=O)C3c4[nH]c5ccc(C)cc5c4C4CCC(C(C)(C)C)CC4C3C2=O)c1` (stereo unspecified), the EC50 is over 200 µM and the 50% inhibitory concentration (IC50) came out at 8.51 µM.
For the molecule `Oc1ccccc1-c1cnnc(-c2ccccc2O)c1`, the EC50 is over 97.7 µM and the IC50 worked out at 18.2 µM.
For `O=C(CS)Nc1cccc(O)c1` the same measures were over 200 µM and over 200 µM.
For `CC(=O)Nc1ccc(C(=O)N2N=C(C)/C(=C/c3cccc([N+](=O)[O-])c3)C2=O)cc1` the same measures were over 47.9 µM and over 47.9 µM.
Regarding `CCOC(=O)C[C@@]12CCCNC1(C)CCc1ccccc12` (stereo partly specified), the result was inactive.
`CO/C1=C\C(C)=C\C(C)C(O)C(C)C/C(C)=C/C=C/C(OC)C(C(C)C(O)C(C)C2(O)CC(O)C(C)C(C(C)C)O2)OC1=O` (stereo unspecified): the EC50 was over 0.2 µM and the IC50 amounted to 0.0129 µM.
`Nc1nc2nc3c(nc2c(=O)[nH]1)CN(C1CCCCC1)C3=O`: the EC50 was over 74.1 µM and the IC50 is over 74.1 µM.
On to `C/C(=N\NC(=S)N(C)C)c1ncc[nH]1`, for which the EC50 is over 234 µM and the IC50 turned out to be 4.27 µM.
For `CN(N)C(=O)NCCCl` the same measures were over 200 µM and over 200 µM.
For `CS(=O)(=O)c1cc(=O)[nH]c(=O)[nH]1` the same measures were 77.6 µM and 102 µM.
As for `COc1ccc(C2NCCc3c2[nH]c2ccccc32)cc1` (stereo unspecified), the result was inactive.
The same measure, in the same setting: under `Cc1cc2c(c3nocc13)C(=O)c1ccccc1C2=O` stands “inactive”; under `CCOP(=O)(OCC)C1CCCCOC1=O` (stereo unspecified), “inactive”.
In the case of `N#CC1C(=O)NC(=O)C(C#N)C12CCCc1sccc12` (stereo unspecified), the EC50 is over 871 µM and the IC50 turned out to be 832 µM.
In the same order, the values of `O=C(CC(c1ccc2c(c1)OCO2)N1CCN(C(CC(=O)c2ccc(Br)cc2)c2ccc3c(c2)OCO3)CC1)c1ccc(Br)cc1` (stereo unspecified) are over 200 µM and over 200 µM.
As for `COc1cc2c(cc1O)C(Cc1ccc(Oc3cc(CC4c5cc(O)c(OC)cc5CCN4C)ccc3O)cc1)N(C)CC2` (stereo unspecified), the outcome was inactive.
As for `CCCCOC(=O)C(=O)C(CC(CC)C(=O)c1ccccc1)C(=O)C=C(C)C` (stereo unspecified), the EC50 is over 646 µM and the IC50 was over 646 µM.
Take `OCCCSCCCCSCCCO`: the EC50 is over 41.7 µM and the IC50 is over 41.7 µM.
For the molecule `C=CCOc1ccc2c(C)cc(=O)oc2c1C`, the EC50 is over 112 µM and the IC50 is 102 µM.
For `CC1CCC2(CC1)NC1=C(CC(C)CC1)C1=C2CC(C)CC1` (stereo unspecified) the same measures were over 200 µM and 35.5 µM.
As for `O=C(O)CSc1nnc(COc2ccccc2)n1-c1ccccc1`, the EC50 was over 741 µM and the IC50 was determined as 407 µM.
In the same order, the values of `Cc1ccc(-c2[nH]c(=O)n(C3OC(CO)C(O)C(O)C3O)c(=O)c2C#N)cc1` (stereo unspecified) are over 200 µM and over 200 µM.
In the case of `O=C(O)CCSCc1cc(C(=O)Nc2ccc(/C=C/c3ccc(NC(=O)c4cc(CSCCC(=O)O)c5cccnc5c4O)cc3S(=O)(=O)O)c(S(=O)(=O)O)c2)c(O)c2ncccc12`, the EC50 was 1.51 µM and the IC50 was 33.9 µM.
In the same order, the values of `O=c1c2cccc3c4ccccc4c4sc5ccccc5n1-c4c23` are over 11.5 µM and over 11.5 µM.
For `COC(=O)C1CC2(CCC1=O)Cc1ccccc1C2=O` (stereo unspecified) the same measures were over 200 µM and 72.4 µM.
In the same order, the values of `O=c1c(Cl)cc2nc3ccccc3sc-2c1Cl` are over 9.55 µM and 8.91 µM.
Consider `OC(CCN1CCOCC1)(c1cccc(Cl)c1)C1CCCCC1` (stereo unspecified), for which the EC50 is over 200 µM and the IC50 turned out to be 41.7 µM.
For `Cc1c2c(n(CCc3ccc(Cl)cc3)c1C)NC(c1ccccc1)C(C#N)S2(=O)=O` (stereo unspecified) the same measures were over 200 µM and 8.91 µM.
In the same order, the values of `CCOP(=O)(OCC)/C(C#N)=C/c1cn(C)cn1` are over 200 µM and over 200 µM.
In the same order, the values of `Cn1nc(-c2ccccc2)c(C(=O)/C=C/c2ccc(Cl)cc2)c(N2CCCC2)c1=O` are over 15.1 µM and 10.7 µM.
As to `COc1ccc(N=[N+]([O-])c2ccc(OC)cc2)cc1`, the EC50 was over 200 µM and the IC50 is over 200 µM.
`C[N+](C)(C)C.[C-]#[O+].[C-]#[O+].[C-]#[O+].[C-]#[O+].[Cr].c1ccc(N=N[N-]c2ccccc2)cc1`: the EC50 is over 1.26 µM and the IC50 was over 1.26 µM.
With `COc1cc(N=Nc2ccccc2)c2nccc(C)c2c1N`, the outcome was inactive.
Consider `CCC(C)C(NC(=O)C(CCCN=C(N)N)NC(=O)C(CC(N)=O)NC(=O)C(Cc1ccc(O)cc1)NC(=O)C(N)CC(C)C)C(=O)NC(C(=O)NC(CC(C)C)C(=O)NC(CCCN=C(N)N)C(=O)NC(Cc1ccc(O)cc1)C(=O)O)C(C)CC` (stereo unspecified) (H-LYNRIILRY-OH; configuration not given here), for which the EC50 is over 40.7 µM and the IC50 came out at 23.4 µM.
In the same order, the values of `CCOC(=O)N/N=C(\CC)OCC` are over 200 µM and over 200 µM.
Consider `NCCCCC(NC(=O)C(N)Cc1ccc(O)cn1)C(=O)O` (stereo unspecified), for which the EC50 is over 200 µM and the IC50 is over 200 µM.
Consider `CC(=O)OC1OC(C2c3cccc(O)c3C(=O)c3c(O)cc(CO)cc32)C(O)C(O)C1O` (stereo unspecified), for which the EC50 is over 200 µM; the IC50 is 4.07 µM and 4.17 µM.
With `CC(O)CNC(=O)C(C)Oc1ccc(OCC2CCCCC2)cc1` (stereo unspecified), the EC50 is over 282 µM and the IC50 was 25.1 µM.
With `O=c1[nH]c(=O)n2n1CC(Br)C(Br)C2` (stereo unspecified), the outcome was inactive.
For `CC(C)(C)[Si](C)(C)OCC1OC(n2ccc(=O)[nH]c2=O)C(O[Si](C)(C)C(C)(C)C)/C1=C/C#N` (stereo unspecified), the EC50 is over 200 µM and the IC50 came out at 8.13 µM.
For the molecule `Cc1cccc(NC(=O)C(=O)C(C(=O)c2ccccc2F)C2OC(=O)c3ccccc32)c1Cl` (stereo unspecified), the EC50 was over 204 µM and the half-inhibitory concentration (IC50) worked out at 12 µM.
As for `Cn1c(=O)c2c(nc3n2CCCC(=O)N3CCCCl)n(C)c1=O`, the EC50 was over 100 µM and the concentration for half-maximal inhibition (IC50) was over 100 µM.
Regarding `CC(=O)OC1C=CS(=O)(=O)C1` (stereo unspecified), the EC50 is over 200 µM and the IC50 was 15.8 µM.
For `COc1ccc(NC(=O)c2oc3cc(O)ccc3c(=O)c2C)c([N+](=O)[O-])c1` the same measures were over 676 µM and 245 µM.
Take `COc1ccc(S(=O)(=O)n2c3c(c4ccccc42)[C@@H]2[C@@H](CCCN2C(=O)CS(=O)c2ccc(C)cc2)[C@H](Cl)C3)cc1` (stereo partly specified): the EC50 is over 200 µM and the IC50 is over 200 µM.
Regarding `CC(=O)Nc1ccccc1-c1ccccc1NC(C)=O`, the result was inactive.
For `O=C(/C=C/c1ccc(Br)cc1)c1ccccc1`, the EC50 was over 18.2 µM and the IC50 came out at 9.55 µM.
In the same order, the values of `CC(=O)Nc1c(C#N)c2n(c1C(=O)Nc1ccc(Cl)cc1)CCC2` are over 200 µM and over 200 µM.
